Reference: PubChem BioAssay AID2060342 (Molecular Pharmacology Branch, DTP, NCI, 2025)

Tested on: 171881-019-R-J1-PDC multicell spheroid viability
Assay: Anticancer human tumor 171881-019-R-J1-PDC patient-derived invasive breast carcinoma cell line growth inhibition [IpAb]
Conditions: for IC50: curve of first compound; for viability, T/C: stronger effect = lower value
From the text: Combinatorial screen of targeted agents with ipatasertib and abemaciclib in multi-cell type tumor spheroids
A high-throughput screen of multi-cell type tumor spheroids was designed to identify active combinations of targeted small molecules and ipatasertib or abemaciclib. Complex spheroids include a stromal component modeled by human endothelial cells (HUVEC) and fibroblasts modeled by human mesenchymal stem cells (MSCs). The concentration ranges selected for each drug and investigational agent were based upon clinically achievable concentrations if the clinical Cmax of the agent was known.
Compounds. The drugs and investigational agents: ipatasertib (NSC767898), abemaciclib(NSC768073), selumetinib (NSC741078), trametinib (758246), adavosertib (NSC754352), everolimus (NSC733504), sapanisertib (NSC764658), vemurafenib (NSC761431), venetoclax (NSC766270), copanlisib (NSC809693), apelisib (NSC765974), palbociblib (NSC758247), vemurafenib (NSC761431), dabrafenib (NSC764134), ravoxertinib (NSC781343), BMS-387032 (NSC767048), sotorasib (NSC818433), talazoparib (NSC767125) and afursertib (NSC778305), were obtained from the National Cancer Institute (NCI) Developmental Therapeutics Program Chemical Repository. The FDA-approved anticancer drug set is available from the NCI Developmental Therapeutics Program. […] The stock solutions were prepared in dimethyl sulfoxide (DMSO, Sigma-Aldrich, St. Louis, MO, cat. D2650) at 800-fold the tested concentration and stored at -70 degrees C prior to their use. All drugs and investigational agents were tested over a range starting from a high concentration at or near the clinical Cmax and decreasing in half-log increments. If the clinical Cmax for an agent had not been determined, the highest concentration tested was 10 microM.
NCI60 Cell Culture. NCI60 cell lines were obtained from the NCI Developmental Therapeutics Program Tumor Repository. For each lot of cells, the Repository performed Applied Biosystems AmpFLSTR Identifiler testing with PCR amplification to confirm consistency with the published Identifier STR profile for each cell line. Cells were kept in continuous culture for no more than 20 passages. The optimal seeding densities for each of the cell lines at each time point assessed were determined prior to performing the concentration response studies. Briefly, the NCI60 human tumor lines were grown as monolayers in RPMI 1640 medium supplemented with 10% FBS and 2 mmol/L L-glutamine.
An additional 9 lines were from the NCI60 cell line panel including MDA-MB-231 breast carcinoma, MDA-MB-468 breast carcinoma, MCF7 breast carcinoma, Hs578T breast carcinoma, MALME-3M melanoma, SK-MEL-2 melanoma, SK-OV-3 ovarian carcinoma, DU-145 prostate carcinoma, PC-3 prostate carcinoma, all cell lines along with major genetic alterations are listed on Table 2. Pooled donor human umbilical vein endothelial cells (HUVEC, Lonza, cat. CC-2519) and human mesenchymal stem cells (hMSC, Lonza, cat. PT-2501) were purchased from Lonza (Walkersville, MD).
PDMR cell lines were grown in complete medium (DC medium): Dulbecco's modified Eagle's medium (DMEM)/F12 supplemented with 5% fetal bovine serum (FBS), 2 mM L-glutamine, 100 U/mL penicillin and 100 µg/ml streptomycin, 0.4 µg/ml hydrocortisone, 10 ng/ml epidermal growth factor (EGF) recombinant human protein, 24 µg/mL adenine, and 0.1 mg/mL primocin. During culture from frozen stock vials, PDMR cells were cultured in the same medium containing 10 µM Y-27632 (see Table 3). The PDCs were cultured in complete DMEM/F12 media without 10 microM Y-27632 dihydrochloride for at least two passages prior to the screen. The pooled donor HUVEC and hMSC were cultured in endothelial cell growth medium 2 (PromoCell, Heidelberg, Germany, cat. C-22011) and mesenchymal stem cell growth medium 2 (PromoCell, cat. C-28009), respectively. For all experiments, HUVEC and hMSC were used at passages </=5.
[…]

[1] = second compound 0.1 µM, first compound 0.0316 µM
[2] = second compound 0.1 µM, first compound 0.1 µM
[3] = second compound 0.316 µM, first compound 0.0316 µM
[4] = second compound 0.316 µM, first compound 0.1 µM
[5] = second compound 1 µM, first compound 0.0316 µM
[6] = second compound 1 µM, first compound 0.1 µM
[7] = second compound 3.16 µM, first compound 0.0316 µM
[8] = second compound 3.16 µM, first compound 0.1 µM
[9] = second compound 10 µM, first compound 0.0316 µM
[10] = second compound 10 µM, first compound 0.1 µM
[11] = second compound 0.1 µM, first compound 0.316 µM
[12] = second compound 0.1 µM, first compound 1 µM
[13] = second compound 0.1 µM, first compound 3.16 µM
[14] = second compound 0.1 µM, first compound 10 µM
[15] = second compound 0.316 µM, first compound 0.316 µM
[16] = second compound 0.316 µM, first compound 1 µM
[17] = second compound 0.316 µM, first compound 3.16 µM
[18] = second compound 0.316 µM, first compound 10 µM
[19] = second compound 1 µM, first compound 0.316 µM
[20] = second compound 1 µM, first compound 1 µM
[21] = second compound 1 µM, first compound 3.16 µM
[22] = second compound 1 µM, first compound 10 µM
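Also: spheroids exposed to the agents for seven days before readout.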

CC(C)n1nc(-c2ccc3oc(N)nc3c2)c2c(N)ncnc21 + CC(C)NCC(C(=O)N1CCN(c2ncnc3c2C(C)CC3O)CC1)c1ccc(Cl)cc1
IC50 (second compound 0.1 µM): 0.00365 µM
IC50 (second compound 0.316 µM): 0.000877 µM
IC50 (second compound 1 µM): < 0.000316 µM
IC50 (second compound 3.16 µM): < 0.000316 µM
IC50 (second compound 10 µM): < 0.000316 µM
viability, T/C (second compound 0.1 µM, first compound 0.000316 µM): 116%
viability, T/C (second compound 0.1 µM, first compound 0.001 µM): 101%
viability, T/C (second compound 0.1 µM, first compound 0.00316 µM): 56.6%
viability, T/C (second compound 0.1 µM, first compound 0.01 µM): 11.2%
viability, T/C [1]: 2.88%
viability, T/C [2]: 2%
viability, T/C (second compound 0.316 µM, first compound 0.000316 µM): 69.3%
viability, T/C (second compound 0.316 µM, first compound 0.001 µM): 47.4%
viability, T/C (second compound 0.316 µM, first compound 0.00316 µM): 16.7%
viability, T/C (second compound 0.316 µM, first compound 0.01 µM): 3.76%
viability, T/C [3]: 1.96%
viability, T/C [4]: 1.7%
viability, T/C (second compound 1 µM, first compound 0.000316 µM): 20%
viability, T/C (second compound 1 µM, first compound 0.001 µM): 9.02%
viability, T/C (second compound 1 µM, first compound 0.00316 µM): 5.13%
viability, T/C (second compound 1 µM, first compound 0.01 µM): 2.23%
viability, T/C [5]: 1.26%
viability, T/C [6]: 1.29%
viability, T/C (second compound 3.16 µM, first compound 0.000316 µM): 8.5%
viability, T/C (second compound 3.16 µM, first compound 0.001 µM): 4.98%
viability, T/C (second compound 3.16 µM, first compound 0.00316 µM): 2.85%
viability, T/C (second compound 3.16 µM, first compound 0.01 µM): 1.62%
viability, T/C [7]: 1.09%
viability, T/C [8]: 0.93%
viability, T/C (second compound 10 µM, first compound 0.000316 µM): 5.26%
viability, T/C (second compound 10 µM, first compound 0.001 µM): 3.35%
viability, T/C (second compound 10 µM, first compound 0.00316 µM): 2.04%
viability, T/C (second compound 10 µM, first compound 0.01 µM): 1.47%
viability, T/C [9]: 0.84%
viability, T/C [10]: 1%

CCCS(=O)(=O)Nc1ccc(F)c(C(=O)c2c[nH]c3ncc(-c4ccc(Cl)cc4)cc23)c1F + CCN1CCN(Cc2ccc(Nc3ncc(F)c(-c4cc(F)c5nc(C)n(C(C)C)c5c4)n3)nc2)CC1
IC50 (second compound 0.01 µM): > 10 µM
IC50 (second compound 0.0316 µM): > 10 µM
IC50 (second compound 0.1 µM): > 10 µM
IC50 (second compound 0.316 µM): > 10 µM
IC50 (second compound 1 µM): > 10 µM
viability, T/C (second compound 0.01 µM, first compound 0.0316 µM): 103%
viability, T/C (second compound 0.01 µM, first compound 0.1 µM): 80.8%
viability, T/C (second compound 0.01 µM, first compound 0.316 µM): 98.6%
viability, T/C (second compound 0.01 µM, first compound 1 µM): 87%
viability, T/C (second compound 0.01 µM, first compound 3.16 µM): 82.9%
viability, T/C (second compound 0.01 µM, first compound 10 µM): 83.9%
viability, T/C (second compound 0.0316 µM, first compound 0.0316 µM): 96.1%
viability, T/C (second compound 0.0316 µM, first compound 0.1 µM): 88.5%
viability, T/C (second compound 0.0316 µM, first compound 0.316 µM): 90.9%
viability, T/C (second compound 0.0316 µM, first compound 1 µM): 91.6%
viability, T/C (second compound 0.0316 µM, first compound 3.16 µM): 85.4%
viability, T/C (second compound 0.0316 µM, first compound 10 µM): 92.3%
viability, T/C [1]: 113%
viability, T/C [2]: 94.9%
viability, T/C [11]: 107%
viability, T/C [12]: 98.4%
viability, T/C [13]: 95.5%
viability, T/C [14]: 94.1%
viability, T/C [3]: 123%
viability, T/C [4]: 129%
viability, T/C [15]: 112%
viability, T/C [16]: 113%
viability, T/C [17]: 106%
viability, T/C [18]: 99.2%
viability, T/C [5]: 143%
viability, T/C [6]: 143%
viability, T/C [19]: 141%
viability, T/C [20]: 137%
viability, T/C [21]: 130%
viability, T/C [22]: 119%

C=CC(=O)N1CCN(c2nc(=O)n(-c3c(C)ccnc3C(C)C)c3nc(-c4c(O)cccc4F)c(F)cc23)C(C)C1 (stereo not given) + CC(C)NCC(C(=O)N1CCN(c2ncnc3c2C(C)CC3O)CC1)c1ccc(Cl)cc1
IC50 (second compound 0.1 µM): 5.26 µM
IC50 (second compound 0.316 µM): 1.83 µM
IC50 (second compound 1 µM): < 0.0316 µM
IC50 (second compound 3.16 µM): < 0.0316 µM
IC50 (second compound 10 µM): < 0.0316 µM
viability, T/C [1]: 102%
viability, T/C [2]: 87.7%
viability, T/C [11]: 90%
viability, T/C [12]: 95.9%
viability, T/C [13]: 74.2%
viability, T/C [14]: 19.5%
viability, T/C [3]: 74.1%
viability, T/C [4]: 67%
viability, T/C [15]: 69%
viability, T/C [16]: 64.7%
viability, T/C [17]: 36.8%
viability, T/C [18]: 13.2%
viability, T/C [5]: 24.6%
viability, T/C [6]: 26.6%
viability, T/C [19]: 25.9%
viability, T/C [20]: 22.1%
viability, T/C [21]: 17.3%
viability, T/C [22]: 7.56%
viability, T/C [7]: 10.2%
viability, T/C [8]: 11.7%
viability, T/C (second compound 3.16 µM, first compound 0.316 µM): 10.2%
viability, T/C (second compound 3.16 µM, first compound 1 µM): 11.5%
viability, T/C (second compound 3.16 µM, first compound 3.16 µM): 8.09%
viability, T/C (second compound 3.16 µM, first compound 10 µM): 4.11%
viability, T/C [9]: 5.17%
viability, T/C [10]: 5.24%
viability, T/C (second compound 10 µM, first compound 0.316 µM): 6.38%
viability, T/C (second compound 10 µM, first compound 1 µM): 5.65%
viability, T/C (second compound 10 µM, first compound 3.16 µM): 5.64%
viability, T/C (second compound 10 µM, first compound 10 µM): 3.86%
